Laboratory results as given in US11247990B1, “Bicyclic fused pyridine compounds as inhibitors of TAM kinases” (ARRAY BIOPHARMA INC., priority 2017, dated 2022).

Key:
Details in all cases: averaged IC50
[1] = target: His-tagged recombinant human AXL cytoplasmic domain (Homo sapiens (Human), UniProt P30530); experiment: AXL Enzyme Assay (LanthaScreen Eu Kinase Binding, TR-FRET)
Method in brief: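 LanthaScreen Eu kinase binding format, incubated 60 min at 22 °C and read by TR-FRET dual-wavelength emission ratio as percent of control. IC50 taken where a 4-parameter logistic fit crosses 50 POC.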

[2] = target: His-tagged recombinant human MER cytoplasmic domain (Homo sapiens (Human), UniProt Q12866); experiment: MER Enzyme Assay (LanthaScreen Eu Kinase Binding, TR-FRET)
Chain of His-tagged recombinant human MER cytoplasmic domain (Q12866 527-999): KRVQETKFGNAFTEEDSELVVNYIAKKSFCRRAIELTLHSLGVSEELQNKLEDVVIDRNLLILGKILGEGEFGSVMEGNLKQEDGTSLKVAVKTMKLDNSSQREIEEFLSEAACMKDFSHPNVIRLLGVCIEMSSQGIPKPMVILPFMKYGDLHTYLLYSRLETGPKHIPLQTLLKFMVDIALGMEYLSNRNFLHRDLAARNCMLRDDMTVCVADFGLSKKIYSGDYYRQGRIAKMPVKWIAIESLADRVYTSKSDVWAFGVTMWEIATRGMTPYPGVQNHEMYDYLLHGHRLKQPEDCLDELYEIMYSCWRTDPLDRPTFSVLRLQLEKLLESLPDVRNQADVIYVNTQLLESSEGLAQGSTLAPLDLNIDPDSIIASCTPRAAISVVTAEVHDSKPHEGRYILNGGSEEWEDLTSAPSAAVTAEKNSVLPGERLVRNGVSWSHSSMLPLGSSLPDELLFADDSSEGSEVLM
Method in brief: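 LanthaScreen Eu kinase binding (tracer displacement) assay with His-tagged human MER cytoplasmic domain, 60 min incubation at 22 °C. TR-FRET dual-wavelength emission ratio converted to percent of control; IC50 is where the 4-parameter logistic fit crosses 50 POC.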

[3] = target: GST-tagged recombinant human TYRO3 kinase domain (Homo sapiens (Human), UniProt Q06418); experiment: TYRO3 Enzyme Assay (LanthaScreen Eu Kinase Binding, TR-FRET)
Chain of GST-tagged recombinant human TYRO3 kinase domain (Q06418 518-790): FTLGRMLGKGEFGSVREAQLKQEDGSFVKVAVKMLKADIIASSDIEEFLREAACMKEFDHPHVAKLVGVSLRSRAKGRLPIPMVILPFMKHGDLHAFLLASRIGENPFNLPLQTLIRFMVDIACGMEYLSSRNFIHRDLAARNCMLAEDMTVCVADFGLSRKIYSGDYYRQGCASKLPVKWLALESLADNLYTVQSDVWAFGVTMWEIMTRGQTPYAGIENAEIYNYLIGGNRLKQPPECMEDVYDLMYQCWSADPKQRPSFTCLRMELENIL
Method in brief: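 LanthaScreen Eu binding (tracer displacement) format read by TR-FRET after 60 min at 22 °C. Emission ratio converted to percent of control; IC50 taken where a 4-parameter logistic fit crosses 50 POC.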

Chain of His-tagged recombinant human AXL cytoplasmic domain (P30530 473-894): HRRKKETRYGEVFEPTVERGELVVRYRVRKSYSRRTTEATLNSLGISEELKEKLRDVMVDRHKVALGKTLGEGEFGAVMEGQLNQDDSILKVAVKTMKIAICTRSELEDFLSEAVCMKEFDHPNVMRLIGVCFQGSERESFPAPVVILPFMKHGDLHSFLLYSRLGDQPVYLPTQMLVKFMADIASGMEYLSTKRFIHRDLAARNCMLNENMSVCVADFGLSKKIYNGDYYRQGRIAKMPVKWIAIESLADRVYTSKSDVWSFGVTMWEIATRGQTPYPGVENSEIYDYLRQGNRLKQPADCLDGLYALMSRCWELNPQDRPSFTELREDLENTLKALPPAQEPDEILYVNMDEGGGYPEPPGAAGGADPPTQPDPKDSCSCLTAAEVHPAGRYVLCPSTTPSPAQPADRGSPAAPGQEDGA

| IC50 [1] [nM] | IC50 [2] [nM] | IC50 [3] [nM] | SMILES |
| --- | --- | --- | --- |
| < 10 | < 10 | 100 to 1000 | CCNc1cc2c(cn1)c(-c1cnc(C)o1)nn2[C@H]1CC[C@@H](Oc2nccc(C(F)(F)F)c2F)CC1 [Example 308, N-ethyl-1-((1s,4s)-4-((3-fluoro-4-(trifluoromethyl)pyridin-2-yl)oxy)cyclohexyl)-3-(2-methyloxazol-5-yl)-1H-pyrazolo[4,3-c]pyridin-6-amine] |
| < 10 | < 10 | 10 to 100 | CCNc1cc2c(cn1)c(C1CCN(C)CC1)nn2[C@H]1CC[C@@H](Oc2nccc(C(F)(F)F)c2F)CC1 [Example 316, N-ethyl-1-((1s,4s)-4-((3-fluoro-4-(trifluoromethyl)pyridin-2-yl)oxy)cyclohexyl)-3-(1-methylpiperidin-4-yl)-1H-pyrazolo[4,3-c]pyridin-6-amine] |
| < 10 | < 10 | < 10 | CCNc1cc2c(cn1)c(C1CCNCC1)nn2[C@H]1CC[C@@H](Oc2nccc(C(F)(F)F)c2F)CC1 [Example 319, N-ethyl-1-((1s,4s)-4-((3-fluoro-4-(trifluoromethyl)pyridin-2-yl)oxy)cyclohexyl)-3-(piperidin-4-yl)-1H-pyrazolo[4,3-c]pyridin-6-amine] |
| < 10 | < 10 | 10 to 100 | CCNc1cc2c(cn1)c(C1CCNC1)nn2[C@H]1CC[C@@H](Oc2nccc(C(F)(F)F)c2F)CC1 (stereo partly drawn) [Example 320, N-ethyl-1-((1s,4s)-4-((3-fluoro-4-(trifluoromethyl)pyridin-2-yl)oxy)cyclohexyl)-3-(pyrrolidin-3-yl)-1H-pyrazolo[4,3-c]pyridin-6-amine] |
| < 10 | < 10 | 10 to 100 | CCNc1cc2c(cn1)c(C1CCCN(C)C1)nn2[C@H]1CC[C@@H](Oc2nccc(C(F)(F)F)c2F)CC1 (stereo partly drawn) [Example 324, N-ethyl-1-((1s,4s)-4-((3-fluoro-4-(trifluoromethyl)pyridin-2-yl)oxy)cyclohexyl)-3-(1-methylpiperidin-3-yl)-1H-pyrazolo[4,3-c]pyridin-6-amine] |
| < 10 | < 10 | 10 to 100 | CCNc1cc2c(cn1)c(C1CCN(C)C1)nn2[C@H]1CC[C@@H](Oc2nccc(C(F)(F)F)c2F)CC1 (stereo partly drawn) [Example 325, N-ethyl-1-((1s,4s)-4-((3-fluoro-4-(trifluoromethyl)pyridin-2-yl)oxy)cyclohexyl)-3-(1-methylpyrrolidin-3-yl)-1H-pyrazolo[4,3-c]pyridin-6-amine] |
| < 10 | < 10 | 10 to 100 | CCNc1cc2c(cn1)c(N1CCOCC1)nn2[C@H]1CC[C@@H](Oc2nccc(C(F)(F)F)c2F)CC1 [Example 330, N-ethyl-1-((1s,4s)-4-((3-fluoro-4-(trifluoromethyl)pyridin-2-yl)oxy)cyclohexyl)-3-morpholino-1H-pyrazolo[4,3-c]pyridin-6-amine] |
| < 10 | < 10 | < 10 | CCNc1cc2c(cn1)c(N1CCN(C)CC1)nn2[C@H]1CC[C@@H](Oc2nccc(C(F)(F)F)c2F)CC1 [Example 331, N-ethyl-1-((1s,4s)-4((3-fluoro-4-(trifluoromethyl)pyridin-2-yl)oxy)cyclohexyl)-3-(4-methylpiperazin-1-yl)-1H-pyrazolo[4,3-c]pyridin-6-amine] |
| < 10 | < 10 | 10 to 100 | CCNc1cc2c(cn1)c(N1CC[C@H](N(C)C)C1)nn2[C@H]1CC[C@@H](Oc2nccc(C(F)(F)F)c2F)CC1 [Example 335, 3-((S)-3-(dimethylamino)pyrrolidin-1-yl)-N-ethyl-1-((1s,4R)-4-((3-fluoro-4-(trifluoromethyl)pyridin-2-yl)oxy)cyclohexyl)-1H-pyrazolo[4,3-c]pyridin-6-amine] |

Continued, compound first:

| SMILES | IC50 [1] [nM] | IC50 [2] [nM] | IC50 [3] [nM] |
| --- | --- | --- | --- |
| CCNc1cc2c(cn1)c(-c1cnn(C)c1)nn2[C@H]1CC[C@@H](Oc2c[nH]nc2C(F)(F)F)CC1 [Example 311, N-ethyl-3-(1-methyl-1H-pyrazol-4-yl)-1-((1s,4s)-4-((3-(trifluoromethyl)-1H-pyrazol-4-yl)oxy)cyclohexyl)-1H-pyrazolo[4,3-c]pyridin-6-amine] | < 10 | < 10 | < 10 |
| CCNc1cc2c(cn1)c(-c1cnn(C(C)(C)C#N)c1)nn2[C@H]1CC[C@@H](Oc2cn[nH]c2C(F)(F)F)CC1 [Example 312, 2-(4-(6-(ethylamino)-1-((1s,4s)-4-((5-(trifluoromethyl)-1H-pyrazol-4-yl)oxy)cyclohexyl)-1H-pyrazolo[4,3-c]pyridin-3-yl)-1H-pyrazol-1-yl)-2-methylpropanenitrile] | < 10 | < 10 | < 10 |
| CCNc1cc2c(cn1)c(C1CCN(C)CC1)nn2[C@H]1CC[C@@H](Oc2cn[nH]c2C(F)(F)F)CC1 [Example 313, N-ethyl-3-(1-methylpiperidin-4-yl)-1-((1s,4s)-4-((5-(trifluoromethyl)-1H-pyrazol-4-yl)oxy)cyclohexyl)-1H-pyrazolo[4,3-c]pyridin-6-amine] | < 10 | < 10 | < 10 |
| CCNc1cc2c(cn1)c(C1CCN(C(C)C)CC1)nn2[C@H]1CC[C@@H](Oc2nccc(C(F)(F)F)c2F)CC1 [Example 326, N-ethyl-1-((1s,4s)-4-((3-fluoro-4-(trifluoromethyl)pyridin-2-yl)oxy)cyclohexyl)-3-(1-isopropylpiperidin-4-yl)-1H-pyrazolo[4,3-c]pyridin-6-amine] | < 10 | < 10 | 10 to 100 |
| CCNc1cc2c(cn1)c(C1CCN(CCOC)CC1)nn2[C@H]1CC[C@@H](Oc2nccc(C(F)(F)F)c2F)CC1 [Example 327, N-ethyl-1-((1s,4s)-4-((3-fluoro-4-(trifluoromethyl)pyridin-2-yl)oxy)cyclohexyl)-3-(1-(2-methoxyethyl)piperidin-4-yl)-1H-pyrazolo[4,3-c]pyridin-6-amine] | < 10 | < 10 | 10 to 100 |
| CCNc1cc2c(cn1)c(C1CCN(C3CCN(C)CC3)CC1)nn2[C@H]1CC[C@@H](Oc2nccc(C(F)(F)F)c2F)CC1 [Example 328, N-ethyl-1-((1s,4s)-4-((3-fluoro-4-(trifluoromethyl)pyridin-2-yl)oxy)cyclohexyl)-3-(1′-methyl-[1,4′-bipiperidin]-4-yl)-1H-pyrazolo[4,3-c]pyridin-6-amine] | < 10 | < 10 | < 10 |
| CCNc1cc2c(cn1)c(C1CCN(C(=O)C(C)C)CC1)nn2[C@H]1CC[C@@H](Oc2nccc(C(F)(F)F)c2F)CC1 [Example 329, 1-(4-(6-(ethylamino)-1-((1s,4s)-4-((3-fluoro-4-(trifluoromethyl)pyridin-2-yl)oxy)cyclohexyl)-1H-pyrazolo[4,3-c]pyridin-3-yl)piperidin-1-yl)-2-methylpropan-1-one] | < 10 | < 10 | 10 to 100 |
| CCNc1cc2c(cn1)c(N1CCC(OC)CC1)nn2[C@H]1CC[C@@H](Oc2nccc(C(F)(F)F)c2F)CC1 [Example 333, N-ethyl-1-((1s,4s)-4((3-fluoro-4-(trifluoromethyl)pyridin-2-yl)oxy)cyclohexyl)-3-(4-methoxypiperidin-1-yl)-1H-pyrazolo[4,3-c]pyridin-6-amine] | < 10 | < 10 | < 10 |
